Read-outs that look alike come from different tables or passages of the source.
Assays:
[1] = molecular target: T1, hP2X3 (Homo sapiens, UniProt P56373); assay: TEVC inhibition dose-response (IC50), hP2X3 in Xenopus laevis oocytes; type: cell-based; conditions: 1 μM ATP, mean ± SD, triplicate
T1 construct: The hP2X1-WT, hP2X2-WT, hP2X3-WT, hP2X4-WT, and hP2X7-WT constructs used for electrophysiology are similarly unmodified full-length, wild-type receptor constructs; expressed in transfected cells; host or cells: Xenopus laevis oocytes injected with mRNA made from pcDNA3.1x
T1 sequence (P56373 1-397): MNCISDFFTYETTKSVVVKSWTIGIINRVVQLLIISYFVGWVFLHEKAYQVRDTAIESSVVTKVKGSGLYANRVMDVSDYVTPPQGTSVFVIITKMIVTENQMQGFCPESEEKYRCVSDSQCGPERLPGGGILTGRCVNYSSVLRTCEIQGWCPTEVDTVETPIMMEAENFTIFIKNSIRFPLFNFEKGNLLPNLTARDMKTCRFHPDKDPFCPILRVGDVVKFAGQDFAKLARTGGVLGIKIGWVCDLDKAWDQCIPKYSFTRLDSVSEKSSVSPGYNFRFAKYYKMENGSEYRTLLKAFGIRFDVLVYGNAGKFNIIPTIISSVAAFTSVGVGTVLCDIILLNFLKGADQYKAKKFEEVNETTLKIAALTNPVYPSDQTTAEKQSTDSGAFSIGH
Description: To evaluate the inhibitory response of an antagonist for a dilution series, an initial excitatory signal was evoked at a subtype-specific concentration of ATP. Next, the antagonist was applied at a test concentration for 60 s and then coapplied at the same test concentration of the antagonist with the identical subtype-specific concentration of ATP. The antagonized signal was then normalized against the preceding excitatory signal evoked by ATP for each individual oocyte tested. The pre- and post-antagonist signals were evoked by 10 μM ATP for hP2X1, 10 μM ATP for hP2X2, 1 μM ATP for hP2X3, 50 μM ATP for hP2X4, and 100 μM ATP for P2X7. For the K297V mutation in rP2X7, pre- and post-antagonist signals were evoked by 300 μM ATP. Each dataset was then fit to a nonlinear regression named “[inhibitor] vs. response – Variable slope (four parameters)” in GraphPad Prism 9 to produce a sigmoidal curve and afford an IC50 value. Each singular condition was used to generate an average which is reported plus or minus its SD between three discrete trials.

[2] = molecular target: T2, rP2X7 (Rattus norvegicus, UniProt Q64663); assay: Bio-layer interferometry (BLI), biotinylated rP2X7 on streptavidin biosensors, 2:1 Langmuir fit; type: binding; conditions: for kon: pH 7.4, 2:1 Langmuir model, 600-s association
T2 sequence (Q64663 1-595): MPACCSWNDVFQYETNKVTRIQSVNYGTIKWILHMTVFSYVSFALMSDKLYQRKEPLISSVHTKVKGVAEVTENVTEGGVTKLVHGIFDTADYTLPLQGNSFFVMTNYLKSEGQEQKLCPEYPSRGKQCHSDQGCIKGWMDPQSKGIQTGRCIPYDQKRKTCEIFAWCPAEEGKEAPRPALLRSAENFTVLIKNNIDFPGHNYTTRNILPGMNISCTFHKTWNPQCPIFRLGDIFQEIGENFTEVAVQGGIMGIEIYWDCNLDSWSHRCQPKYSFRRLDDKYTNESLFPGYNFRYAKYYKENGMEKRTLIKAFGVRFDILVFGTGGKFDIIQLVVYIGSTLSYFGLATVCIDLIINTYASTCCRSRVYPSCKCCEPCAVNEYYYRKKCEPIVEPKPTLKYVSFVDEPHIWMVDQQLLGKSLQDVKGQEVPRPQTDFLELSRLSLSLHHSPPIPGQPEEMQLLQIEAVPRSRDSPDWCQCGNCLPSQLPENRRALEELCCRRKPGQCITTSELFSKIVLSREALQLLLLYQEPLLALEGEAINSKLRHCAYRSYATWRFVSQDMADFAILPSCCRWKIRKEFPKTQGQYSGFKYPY
Experimental: Using a HiTrap desalting column (Cytiva), 1 ml of diluted purified rP2X7 was desalted into PBS buffer (pH 7.4). Protein-containing fractions were combined and concentrated before adjusting the pH to 8.0 with NaHCO3. NHS-PEG12-Biotin (Thermo Fisher Scientific) was added and incubated at 23°C for 60 min while shaking. PBS was used to dilute the biotinylated sample before four cycles of dilution and concentration to ensure the removal of free NHS-PEG12-Biotin via a 100-kDa concentrator (Millipore Sigma). After the final cycle, the absorbance at 280 nm of the concentrated sample was taken to quantify the amount of biotinylated rP2X7.
A ForteBio Octet RED384 instrument with ForteBio Data Acquisition software 11.0 was used to carry out BLI experiments. The assays were performed at 30°C using 384-well tilted-bottom plates (Sartorius) while orbital shaking at 1000 RPM. Running buffer consisting of filtered (0.22 μm) PBS (pH 7.4) with 0.5 mM DDM (Anatrace). Streptavidin (SA) biosensor tips (Sartorius) were pre-equilibrated in running buffer for 20 min and loaded with 50 μg ml^−1 of biotinylated rP2X7 ligand or biocytin (Sigma-Aldrich) control for 1800s. Blocking of the loaded SA sensors using 100 μg ml^−1 of biocytin was then initiated for 150 s before washing with a running buffer for 60 s. A baseline of loaded sensors was taken in the running buffer for 120 s before dipping them into wells containing ligand dilutions (0.37 to 10 μM for methyl blue) for 600 s, and then returning the sensors to the running buffer for a 600-s disassociation step. Rate constants for association and disassociation were determined using ForteBio Data Analysis HT 11.0 evaluation software. The raw data were double reference subtracted for maximal signal between the large ligand and small analyte. Biocytin controls were the first subtraction across analyte concentrations, and the zero-analyte concentration was the second. The association rate constant (ka) and the dissociation rate constant (kd) were calculated for each interaction pair using an average of three independent assays containing at least four different concentrations that were globally fit to a 2:1 Langmuir binding model. Equilibrium dissociation constants (KD) were calculated as the ratio of kd to ka. The KD1, KD2, ka1, ka2, kd1, and kd2 values are reported as the average ± the SD of three replicate datasets for each analyte, with each dataset using at least four independent traces. The analyzed data were exported and plotted in GraphPad Prism 9.0.

[3] = 2:1 Langmuir model, 600-s dissociation

O=S(=O)(O)c1ccc(N=C2C=CC(=C(c3ccc(Nc4ccc(S(=O)(=O)O)cc4)cc3)c3ccc(Nc4ccc(S(=O)(=O)O)cc4)cc3)C=C2)cc1 [methyl blue]
IC50 [1]: 4 ± 1 µM | share of signal of the high-affinity component (KD1) ([2]; 2:1 Langmuir model): 67 ± 8% | share of signal of the low-affinity component (KD2) ([2]; 2:1 Langmuir model): 33 ± 8% | Kd ([2]; 2:1 Langmuir model, 30°C, PBS pH 7.4 with 0.5 mM DDM, ratio of kd to ka, read-out: KD1 (high-affinity binding component)): 260 ± 130 nM | rate constant for dissociation kd1 [2, 3]: 1.1 ± 0.5 × 10^−4 s^−1 | rate constant for dissociation kd2 [2, 3]: 1.3 ± 0.1 × 10^−2 s^−1 | kon ([2]; read-out: rate constant for association ka1): 450 ± 2000 M⁻¹ s⁻¹ | kon ([2]; read-out: rate constant for association ka2): 9300 ± 2.3e+06 M⁻¹ s⁻¹ | Kd ([2]; read-out: KD2 (low-affinity binding component), 2:1 Langmuir model, 30°C, PBS pH 7.4 with 0.5 mM DDM, ratio of kd to ka): 1500 ± 200 nM

— publication PMC11451537, “P2X7 receptors exhibit at least three modes of allosteric antagonism” (Science Advances, 2024)
